# According to US10137105B2, “Combination treatment protocol” (Bionomics Limited, priority 2015, dated 2018):
# Columns and labels:
# [1] = test system: normal peripheral lymphocytes; assay: Toxicity to normal peripheral lymphocytes (PARP cleavage, chromatin condensation); format: cell-based, human; details: for PARP cleavage / apoptosis in normal peripheral lymphocytes: 0-1 μM EX2, 1-10 nM ABT-199 or 100 nM dinaciclib, each alone
# Protocol: (§1) Cells were incubated for […] with 2 μg/mL Hoechst 33342 at 37° C. and visualized with a fluorescent microscope. At least 200 cells were scored for each sample. The percentage of cells with condensed chromatin was recorded.
# (§2) Cells were lysed in urea sample buffer [4 mol/L urea, 10% β-mercaptoethanol, 6% w/v SDS, 125 mmol/L Tris (pH 6.8), 0.01% w/v bromphenol blue, and protease/phosphatase inhibitor cocktail] and boiled for 5 min. Proteins were subsequently separated by SDS-PAGE (10 or 15% w/v) and transferred to polyvinylidene difluoride membrane (Millipore). Membranes were blocked with 5% w/v nonfat milk in TBS and 0.05% w/v Tween 20, and were probed with the appropriate primary antibody overnight. Subsequently, membranes were washed in TBS and 0.05% w/v Tween 20, and then incubated with secondary antibody conjugated to horseradish peroxidase. Proteins were visualized by enhanced chemiluminescence (Amersham). Actin was used as a loading control in Western blots.
# To test the potential toxicity of EX2, normal peripheral lymphocytes were isolated from a healthy volunteer and incubated with EX2 alone or in combination with ABT-199.
# CLL cells on L4.5 stroma = assay: Apoptosis of CLL cells co-incubated 24 h on CD154+ L4.5 stromal cells; format: cell-based, human
# Protocol: (§3) CLL cells were obtained from consented patients at the Norris Cotton Cancer Center. Cells were purified by centrifugation in Ficoll-Paque PLUS from 10 mL of blond. Lymphocytes were plated in RPMI 1640 plus 10% serum at 1×10^6 cells/mL after three washes in PBS+2 mmol/L EDTA. Cells were either incubated immediately with reagents or after 24 h incubation with confluent layers of CD154+ stromal cells (L 4.5) at a ratio of 5:1.
# as §1
# The experiments above have shown that CLL cells are usually very sensitive to EX2. However, these cells were isolated from peripheral blood, and the real problem to curing CLL is to be able to kill cells that reside in the lymph node or bone marrow niche. To mimic this niche, we have used L4.5 cells that express CD154. Co-incubation of CLL cells on this stroma for 24 h elicits marked resistance to many drugs including the BCL-2 inhibitor ABT-199 (FIG. 7). […] However, when ABT-199 and EX2 were combined, marked apoptosis was again observed. For example, 100 nM ABT-199 alone induced about 10% apoptosis, whereas when combined with 1 μM EX2, >60% apoptosis was observed within 6 h. The combination of 1 μM EX2 and 1 μM ABT-199 induced about 80% apoptosis. […]
# [2] = Dog toxicity studies, cardiovascular effects; format: in vivo; details: dogs
# Excerpt: (§4) Signs of cardiomyopathy were decreased in severity and incidence by 14 days after the 2-cycles of treatment, indicating recovery or reversibility of the effects. The implications of these findings for humans are not clear as these cardiovascular effects were not observed in dog toxicity studies. […] Thus an effect on the hERG channel is expected to be slight, if any, at efficacious doses of Example 2.
# [3] = 2-cycle rat toxicity study; format: in vivo; details: rats, 2 cycles; decreased in severity and incidence by 14 days after treatment
# Excerpt: as §4
# hERG channel = hERG channel (Homo sapiens, UniProt Q12809); assay: hERG channel inhibition, in vitro testing; format: biochemical
# Excerpt: as §4
# advanced solid tumors = assay: Phase I study of Example 2 in subjects with advanced solid tumors; format: in vivo, human
# Protocol: (§5) The recommended Phase 2 dose (RP2D) of Example 2 is evaluated in subjects with advanced solid tumors. Dosing is at a level of 2.1 mg/m^2. The dose of 16 mg/m^2 is deemed to be an MTD. In this study, adverse events are seen across all dose groups. The two most common categories of AE's are gastrointestinal disorders (nausea, vomiting, constipation) and general disorders (predominantly fatigue). Disorders related to bone marrow suppression are rare. Anemia is reported in one patient at a dose level of 8.4 mg/m^2 and in two patients at a dose level of 18.9 mg/m^2. […] Similarly, in a phase 11 study of Example 2 in patients with malignant pleural mesothelioma grade 1-2 gastrointestinal and general disorders are the predominant AE's: in 87% and 50% of patients correspondingly. Grade 3 fatigue is observed in 8% of patients. Finally, grade 1-2 anemia is reported in 33% of study participants.
# Thus, this study employs 8 mg/m^2 iv on days 1 and 8 (cycle 1) or 8 and 15 (cycles 2-6) of a 21-day cycle as a starting dose of Example 2. This dose corresponds to a dose one tier below that sufficient to induce disruption of microtubules, yet also is lower than the currently established MTD in a Phase I study of Example 2 in patients with solid tumors. […] The study follows a standard 3+3 Phase I design (between 3 and 6 patients are enrolled at each dose tier). The dose of the drug is escalated to 16 mg/m^2, toxicities permitting. If toxicities emerge at dose level 1, the dose of Example 2 is de-escalated to 4 mg/m^2. […] Preliminary assessment of response and pharmacodynamic endpoints of treatment with Example 2 is assessed at several dose levels allowing for more careful selection of RP2D in CLL.
# microtubules in PBMCs = assay: Disruption of microtubules in PBMCs of dosed subjects; format: in vivo, human; details: doses of 12.6 and 16 mg/m^2
# CLL cells [4] = assay: Immunoblot analysis (PARP cleavage, pJNK, Noxa) in CLL cells; format: cell-based, human
# Protocol: as §3, §2
# [5] = test system: malignant pleural mesothelioma; assay: Phase II study of Example 2 in patients with malignant pleural mesothelioma; format: in vivo, human
# Protocol: as §5
# CLL cells [6] = assay: Chromatin condensation (Hoechst 33342) apoptosis scoring in freshly isolated CLL cells; format: cell-based, human
# Protocol: as §3, §1
# [7] = Cardiovascular safety pharmacology study in telemetered dogs; format: in vivo, dog; details: doses up to 0.8 mg/kg (highest dose assessed)
# Excerpt: as §4
# Jeko-1 cells = assay: Kinetics of apoptosis in Jeko-1 cells (Western blots); format: cell-based; details: 20 nM EX2 (FIG. 6)
# Protocol: FIG. 6: Kinetics of compounds of Formula (I) induced apoptosis in Jeko-1 cells. Western blots of Jeko-1 cells incubated with 20 nM compounds of Formula (I). “C”=a control cell line incubated with 2 μM vinblastine as a positive control for protein expression.
# as §2
# [8] = healthy volunteer, 6 h, 0-1 μM EX2
# hERG channel, sequence (Q12809 whole entry): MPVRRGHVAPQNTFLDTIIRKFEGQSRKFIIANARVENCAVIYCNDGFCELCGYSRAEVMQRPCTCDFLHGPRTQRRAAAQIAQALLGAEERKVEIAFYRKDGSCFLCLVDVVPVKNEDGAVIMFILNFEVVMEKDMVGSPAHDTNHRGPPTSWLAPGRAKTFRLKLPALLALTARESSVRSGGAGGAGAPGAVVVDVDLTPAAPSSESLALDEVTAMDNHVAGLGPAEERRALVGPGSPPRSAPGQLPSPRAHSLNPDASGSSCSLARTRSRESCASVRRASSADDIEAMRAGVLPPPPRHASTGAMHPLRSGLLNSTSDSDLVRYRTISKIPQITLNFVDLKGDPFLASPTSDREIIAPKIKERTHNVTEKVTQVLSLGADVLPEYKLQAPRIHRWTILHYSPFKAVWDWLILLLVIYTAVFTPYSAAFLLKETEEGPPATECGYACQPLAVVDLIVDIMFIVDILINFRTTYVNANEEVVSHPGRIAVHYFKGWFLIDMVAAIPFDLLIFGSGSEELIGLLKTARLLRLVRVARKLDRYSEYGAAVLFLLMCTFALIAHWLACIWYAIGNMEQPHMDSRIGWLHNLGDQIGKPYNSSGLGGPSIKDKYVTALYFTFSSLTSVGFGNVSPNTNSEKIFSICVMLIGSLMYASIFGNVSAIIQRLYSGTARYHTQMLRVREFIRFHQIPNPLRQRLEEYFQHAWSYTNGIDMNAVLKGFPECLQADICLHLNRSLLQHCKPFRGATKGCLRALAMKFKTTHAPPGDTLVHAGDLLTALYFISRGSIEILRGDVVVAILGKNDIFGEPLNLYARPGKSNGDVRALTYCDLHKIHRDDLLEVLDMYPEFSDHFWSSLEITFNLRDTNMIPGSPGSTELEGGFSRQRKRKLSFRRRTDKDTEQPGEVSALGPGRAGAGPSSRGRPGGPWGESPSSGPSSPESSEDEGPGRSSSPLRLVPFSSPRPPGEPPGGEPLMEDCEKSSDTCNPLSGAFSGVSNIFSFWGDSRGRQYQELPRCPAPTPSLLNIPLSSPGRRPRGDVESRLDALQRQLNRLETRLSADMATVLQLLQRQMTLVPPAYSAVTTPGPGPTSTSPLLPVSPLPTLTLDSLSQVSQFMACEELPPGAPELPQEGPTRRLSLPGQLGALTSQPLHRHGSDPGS
structure (smiles),measurement,setting,value
"CC1(C)CCC(CN2CCN(c3ccc(C(=O)NS(=O)(=O)c4ccc(NCC5CCOCC5)c([N+](=O)[O-])c4)c(Oc4cnc5[nH]ccc5c4)c3)CC2)=C(c2ccc(Cl)cc2)C1 [ABT-199, reference compound]",chromatin condensation in normal peripheral lymphocytes,"[1]; ABT-199 1-10 nM with or without EX2, 6 h",no chromatin condensation was observed
same,PARP cleavage / apoptosis in normal peripheral lymphocytes,"[1]; healthy volunteer, 6 h",slight PARP cleavage
same,apoptosis,"CLL cells on L4.5 stroma; 100 nM ABT-199 alone, CLL cells on stroma, 6 h",about 10%
"COc1cc(C(=O)c2c(C)oc3c(OP(=O)([O-])[O-])c(OC)ccc23)cc(OC)c1OC.[Na+].[Na+] [Example 2, Disodium 6-methoxy-2-methyl-3-(3,4,5-trimethoxybenzoyl)benzofuran-7-yl phosphate]",effects on the cardiovascular system,[2],no effects on the cardiovascular system
same,cardiac finding,[3],"dose-dependent, reversible cardiomyopathy"
same,IC50,hERG channel,> 979 µM
same,"anemia, patients reported",advanced solid tumors; dose level 8.4 mg/m^2,one patient
same,"anemia, patients reported",advanced solid tumors; dose level 18.9 mg/m^2,two patients
same,grade 4 events,"advanced solid tumors; dose level 18.9 mg/m^2, same subject",Two grade 4 events (myocardial infarction and peripheral neuropathy)
same,MTD,advanced solid tumors; subjects with advanced solid tumors,16 mg/m^2
same,effect on microtubules in PBMCs,microtubules in PBMCs,briefly disrupt microtubules
same,PARP cleavage in presence of JNK inhibitor VIII,"CLL cells [4]; 0-1 μM EX2, 6 h, with JNK inhibitor VIII",completely prevented
same,PARP cleavage by 24 h,"CLL cells [4]; 20 nM, patient 114, incubated up to 24 h (FIG. 5)",almost total cleavage of PARP
same,JNK activation and PARP cleavage five hours after removing EX2,"CLL cells [4]; 1 h pulse treatment, then 5 h without EX2, versus continuous incubation",still observed albeit slightly less
same,"concentration at which apoptosis, pJNK and Noxa expression began to appear","CLL cells [4]; 6 h, patient 49 (FIG. 2A)",5 nM
same,time to activation of JNK,CLL cells [4]; CLL cells incubated with EX2,less than one hour
same,pJNK and NOXA in protein lysates,"CLL cells [4]; same concentrations of EX2 (10-100 nM), 6 h",increased
same,Noxa induction in normal peripheral lymphocytes,[1]; [8],no Noxa was induced
same,pJNK in normal peripheral lymphocytes,[1]; [8],activated
same,PARP cleavage / apoptosis in normal peripheral lymphocytes,"[1]; healthy volunteer, 6 h",no significant PARP cleavage or chromatin condensation
same,"Grade 3 fatigue, patients",[5],8%
same,"grade 1-2 anemia, study participants",[5],33%
same,"grade 1-2 gastrointestinal disorders, patients",[5],87%
same,"grade 1-2 general disorders, patients",[5],50%
same,"apoptosis of co-cultured CLL cells, EX2 alone","CLL cells on L4.5 stroma; 1 μM EX2, 24 h on L4.5 stroma then 6 h drug",no apoptosis observed
same,potency as inducer of apoptosis compared with vinblastine and combretastatin A4,"CLL cells [6]; chromatin condensation and PARP cleavage, 6 h, 3-6 patients",more potent inducer of apoptosis
same,concentration at which apoptosis (chromatin condensation) was observed,"CLL cells [6]; freshly isolated CLL cells, media with 0-1 μM EX2, 6 h (FIG. 1)",10 to 100 nM
same,effects on cardiovascular or respiratory function,[7],no effects on cardiovascular or respiratory function
same,time by which apoptosis was complete,Jeko-1 cells,up to 24 h
"CCc1cnn2c(NCc3ccc[n+]([O-])c3)cc(N3CCCC[C@H]3CCO)nc12 [Dinaciclib, reference compound]",PARP cleavage / apoptosis in normal peripheral lymphocytes,"[1]; healthy volunteer, 6 h",some apoptosis
"COc1cc(C(=O)c2c(C)oc3c(O)c(OC)ccc23)cc(OC)c1OC [Example 1, 2-Methyl-7-hydroxy-3-(3,4,5-trimethoxybenzoyl)-6-methoxybenzofuran]",IC50,hERG channel,> 6.71 µM
